pIC50: −log10 of the molar value. Numbered stars: 1 amine (or outer) side, 2 acyl side, 3 side chain; on linkers, the order of the positions; unused ones are H or OH. Square brackets hold non-standard residues; d marks the D form. Peptide text beside a SMILES is read from it. * marks the point of attachment. ξ: configuration not given here. Phe(4-F)ψ(2,4-Thz) = O=C(c1csc([C@H](Cc2ccc(F)cc2)N[*:1])n1)[*:2]; Phe(4-guanidino) = N=C(N)Nc1ccc(C[C@H](N)C(=O)O)cc1; X1 = COc1ccc(C[C@H](N[*:1])c2nc(C(=O)[*:2])cs2)cc1; Phe(4-F) = N[C@@H](Cc1ccc(F)cc1)C(=O)O; hArg = N=C(N)NCCCC[C@H](N)C(=O)O; Cha = N[C@@H](CC1CCCCC1)C(=O)O; Nphe = O=C(O)CNCc1ccccc1; X2 = O=C(/C=C/c1ccccc1)*; ξV = CC(C)C(N)C(=O)O; Sar = CNCC(=O)O
Columns and labels:
[1] = species: Homo sapiens; experiment: Inhibition of TRAP-6 (SFLLRN-NH2)-induced human gel filtered platelet aggregation (GFP).; assay type: functional
[2] = target: T1, Proteinase-activated receptor 1 (Homo sapiens, UniProt P25116); experiment: Inhibition of [3H]S-(p-F-Phe)-Har-L-Har-KY-NH2 binding to a thrombin receptor (PAR-1) membrane preparation.
T1 sequence (P25116 whole entry): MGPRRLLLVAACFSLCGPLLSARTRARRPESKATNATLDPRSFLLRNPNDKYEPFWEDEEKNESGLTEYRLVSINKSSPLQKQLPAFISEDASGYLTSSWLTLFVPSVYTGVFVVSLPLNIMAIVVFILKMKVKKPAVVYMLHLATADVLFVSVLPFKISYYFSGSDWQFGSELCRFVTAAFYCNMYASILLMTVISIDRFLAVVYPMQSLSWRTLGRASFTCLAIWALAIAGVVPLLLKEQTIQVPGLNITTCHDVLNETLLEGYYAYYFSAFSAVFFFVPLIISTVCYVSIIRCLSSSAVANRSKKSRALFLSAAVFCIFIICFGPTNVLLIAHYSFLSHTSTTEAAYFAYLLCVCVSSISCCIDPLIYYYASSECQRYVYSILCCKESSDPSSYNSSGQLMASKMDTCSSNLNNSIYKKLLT

[3] = species: Homo sapiens; experiment: Inhibition of alpha-thrombin-induced human gel filtered platelet aggregation (GFP).; assay type: functional

pIC50 [1]	pIC50 [2]	pIC50 [3]	SMILES
6.52	4.14	–	CC(C)C[C@H](NC(=O)[C@H](CC(C)C)NC(=O)[C@H](Cc1ccccc1)NC(=O)[C@@H](N)CO)C(=O)N[C@@H](CCCN=C(N)N)C(=O)N[C@@H](CC(N)=O)C(N)=O
4.10	< 4.00	< 4.00	CC[C@H](C)[C@H](N)C(=O)N[C@@H](Cc1ccc(F)cc1)c1nc(C(=O)N(CC(=O)N[C@@H](CCCN=C(N)N)C(=O)N[C@@H](Cc2ccccc2)C(N)=O)Cc2ccccc2)cs1 (H-I[Phe(4-F)ψ(2,4-Thz)][Nphe]RF-NH2)
4.38	4.03	4.02	CNCC(=O)N[C@@H](Cc1ccc(F)cc1)c1nc(C(=O)N[C@H](CC2CCCCC2)C(=O)N[C@@H](CCCNC(=N)N)C(=O)N[C@@H](Cc2ccccc2)C(N)=O)cs1
4.44	4.22	4.35	CNCC(=O)N[C@@H](Cc1ccccc1)c1nc(C(=O)N[C@@H](CC2CCCCC2)C(=O)N[C@@H](CCCNC(=N)N)C(=O)NCc2ccccc2)c(C)o1
–	5.57	–	CNCC(=O)N[C@@H](Cc1ccc(F)cc1)c1nc(C(=O)N[C@@H](CC2CCCCC2)C(=O)N[C@@H](CCCNC(=N)N)C(=O)N[C@@H](CC2CCCCC2)C(N)=O)cs1 (H-[Sar][Phe(4-F)ψ(2,4-Thz)][Cha]R[Cha]-NH2)
4.60	4.28	4.62	Cc1oc([C@H](Cc2ccc(F)cc2)NC(=O)C(N)CN)nc1C(=O)N[C@@H](CC1CCCCC1)C(=O)N[C@@H](CCCN=C(N)N)C(=O)NCc1ccccc1 (stereo partly drawn)
5.02	–	4.31	COc1ccc(C[C@H](NC(=O)C(N)C(C)C)c2nc(C(=O)N[C@@H](CC3CCCCC3)C(=O)N[C@@H](CCCN=C(N)N)C(=O)N[C@@H](Cc3ccccc3)C(N)=O)cs2)cc1 (stereo partly drawn) (H-[ξV][X1][Cha]RF-NH2)
< 4.00	–	< 4.00	CNCC(=O)N[C@@H](Cc1ccc(F)cc1)c1nc(C(=O)N[C@@H](CCCN=C(N)N)C(=O)N[C@@H](CCCN=C(N)N)C(=O)N[C@@H](Cc2ccccc2)C(N)=O)cs1 (H-[Sar][Phe(4-F)ψ(2,4-Thz)]RRF-NH2)
< 4.00	< 4.00	< 4.00	CNCC(=O)N[C@@H](Cc1ccc(F)cc1)c1nc(C(=O)N2CCCC(C(=O)N[C@@H](CCCNC(=N)N)C(=O)N[C@@H](Cc3ccccc3)C(N)=O)C2)cs1 (stereo partly drawn)
< 4.00	< 4.00	< 4.00	CNCC(=O)N[C@@H](Cc1ccc(F)cc1)c1nc(C(=O)N[C@@H](CCCCN)C(=O)N[C@@H](CCCNC(=N)N)C(=O)NCCc2ccccc2)cs1
4.44	5.17	< 4.00	NCCC(=O)N[C@@H](Cc1ccc(F)cc1)c1nc(C(=O)N[C@@H](CC2CCCCC2)C(=O)N[C@@H](CCCN=C(N)N)C(=O)NCc2ccccc2)co1
5.00	5.27	4.77	NCC(=O)N[C@@H](Cc1ccc(F)cc1)c1nc(C(=O)N[C@@H](CC2CCCCC2)C(=O)N[C@@H](CCCN=C(N)N)C(=O)NCc2ccccc2)co1
5.26	5.39	4.35	CNCC(=O)N[C@@H](Cc1ccc(F)cc1)c1nc(C(=O)N[C@@H](CC2CCCCC2)C(=O)N[C@@H](CCCN=C(N)N)C(=O)N[C@@H](Cc2ccc(O)cc2)C(N)=O)cs1 (H-[Sar][Phe(4-F)ψ(2,4-Thz)][Cha]RY-NH2)
4.80	4.62	4.40	CNCC(=O)N[C@@H](Cc1ccc(F)cc1)c1nc(C(=O)N[C@@H](CC2CCCCC2)C(=O)N[C@@H](CCCNC(=N)N)C(=O)NCC(C)c2ccccc2)cs1 (stereo partly drawn)
5.40	5.41	4.49	CC[C@H](C)[C@H](N)C(=O)N[C@@H](Cc1ccc(F)cc1)c1nc(C(=O)N[C@@H](CC2CCCCC2)C(=O)N[C@@H](CCCN=C(N)N)C(=O)N[C@@H](Cc2ccccc2)C(N)=O)cs1 (H-I[Phe(4-F)ψ(2,4-Thz)][Cha]RF-NH2)
4.89	4.62	4.34	CNCC(=O)N[C@@H](Cc1ccc(F)cc1)c1nc(C(=O)N[C@@H](Cc2ccccc2)C(=O)N[C@@H](CCCN=C(N)N)C(=O)NCc2ccccc2)cs1

pIC50 [1]	pIC50 [2]	pIC50 [3]	SMILES
4.96	5.00	4.57	CNCC(=O)N[C@@H](Cc1ccc(F)cc1)c1nc(C(=O)N[C@@H](CC2CCCCC2)C(=O)N[C@@H](CCCNC(=N)N)C(=O)NCc2ccccc2)cs1
4.80	5.10	4.55	NC(=O)[C@H](Cc1ccccc1)NC(=O)[C@H](CCCN=C(N)N)NC(=O)[C@H](CC1CCCCC1)NC(=O)c1csc([C@@H](N)Cc2ccc(F)cc2)n1
4.74	5.30	4.64	CNCC(=O)N[C@@H](Cc1ccc(F)cc1)c1nc(C(=O)N[C@@H](CC2CCCCC2)C(=O)N[C@@H](CCCNC(=N)N)C(=O)NCc2ccccc2)c(C)o1
5.00	5.25	4.57	CNCC(=O)N[C@@H](Cc1ccc(F)cc1)c1nc(C(=O)N[C@@H](CC2CCCCC2)C(=O)N[C@@H](CCCN=C(N)N)C(=O)NCCc2ccccc2)cs1
–	< 4.00	–	CNCC(=O)N[C@@H](Cc1ccc(F)cc1)c1nc(C(=O)N[C@@H](CCCNC(=N)N)C(=O)N[C@@H](CCCNC(=N)N)C(=O)N[C@@H](Cc2ccccc2)C(N)=O)cs1 (H-[Sar][Phe(4-F)ψ(2,4-Thz)]RRF-NH2)
5.11	–	4.23	CNCC(=O)N[C@@H](Cc1ccc(F)cc1)c1nc(C(=O)N[C@@H](CC2CCCCC2)C(=O)N[C@@H](CCCCN=C(N)N)C(=O)N[C@@H](Cc2ccccc2)C(N)=O)cs1 (H-[Sar][Phe(4-F)ψ(2,4-Thz)][Cha][hArg]F-NH2)
4.89	5.21	4.72	NCC(=O)N[C@@H](Cc1ccc(F)cc1)c1nc(C(=O)N[C@@H](CC2CCCCC2)C(=O)N[C@@H](CCCN=C(N)N)C(N)=O)co1
–	5.57	–	CC(C)C(N)C(=O)N[C@@H](Cc1ccc(F)cc1)c1nc(C(=O)N[C@@H](CC2CCCCC2)C(=O)N[C@@H](CCCNC(=N)N)C(=O)N[C@@H](Cc2ccccc2)C(N)=O)cs1 (stereo partly drawn) (H-[ξV][Phe(4-F)ψ(2,4-Thz)][Cha]RF-NH2)
5.34	–	4.66	CC(C)C(N)C(=O)N[C@@H](Cc1ccc(F)cc1)c1nc(C(=O)N[C@@H](CC2CCCCC2)C(=O)N[C@@H](CCCN=C(N)N)C(=O)N[C@@H](Cc2ccccc2)C(N)=O)cs1 (stereo partly drawn) (H-[ξV][Phe(4-F)ψ(2,4-Thz)][Cha]RF-NH2)
7.68	8.12	–	CC(C)C[C@H](NC(=O)[C@H](Cc1ccc(NC(=N)N)cc1)NC(=O)[C@H](Cc1ccc(F)cc1)NC(=O)/C=C/c1ccccc1)C(=O)N[C@@H](CCCN=C(N)N)C(=O)N[C@@H](CCCN=C(N)N)C(N)=O (X2-[Phe(4-F)][Phe(4-guanidino)]LRR-NH2)
–	5.09	–	COc1ccc(C[C@H](NC(=O)C(N)C(C)C)c2nc(C(=O)N[C@@H](CC3CCCCC3)C(=O)N[C@@H](CCCNC(=N)N)C(=O)N[C@@H](Cc3ccccc3)C(N)=O)cs2)cc1 (stereo partly drawn) (H-[ξV][X1][Cha]RF-NH2)
4.72	4.52	4.74	CC(=O)N[C@@H](Cc1ccc(F)cc1)c1nc(C(=O)N[C@@H](CC2CCCCC2)C(=O)N[C@@H](CCCNC(=N)N)C(=O)NCc2ccccc2)c(C)o1
5.17	–	4.34	CNCC(=O)N[C@@H](Cc1ccc(F)cc1)c1nc(C(=O)N[C@@H](CC2CCCCC2)C(=O)N[C@@H](CCCN=C(N)N)C(=O)N[C@@H](CC2CCCCC2)C(N)=O)cs1 (H-[Sar][Phe(4-F)ψ(2,4-Thz)][Cha]R[Cha]-NH2)
4.85	5.24	4.39	CNCC(=O)N[C@@H](Cc1ccc(F)cc1)c1nc(C(=O)N[C@@H](CC2CCCCC2)C(=O)N[C@@H](CCCN=C(N)N)C(=O)N[C@@H](Cc2ccccc2)C(N)=O)cs1
5.18	5.80	4.60	CNCC(=O)N[C@@H](Cc1ccc(F)cc1)c1nc(C(=O)N[C@@H](CC2CCCCC2)C(=O)N[C@@H](CCCN=C(N)N)C(=O)NCc2ccccc2)co1

Reference: ChEMBL document CHEMBL1130860, “Thrombin receptor (PAR-1) antagonists. Heterocycle-based peptidomimetics of the SFLLR agonist motif” (Bioorg Med Chem Lett, 1998)
